How the values were obtained:
Test in all cases: relative viability (nuclei count vs DMSO), 5 days (fraction); higher = more cells survive
[1] = compound: CN1CCN(CC1)C2=CC(=C(C=C2)NC3=NC(=C(S3)C(=O)C4=C(C=CC=C4Cl)Cl)N)OC [XMD14-99] + COc1cc2c(Oc3ccc(NC(=O)C4(C(=O)Nc5ccc(F)cc5)CC4)cc3F)ccnc2cc1OCCCN1CCOCC1 [Foretinib] (partner 0.25 µM)
In short: (§1)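 Relative viability is defined as nuclei in treated wells over nuclei in vehicle wells. Duplicate plates were run and medians reported. Lung cancer cell lines in 1536-well plates were dosed by pin tool one day after seeding, with one drug or with a fixed anchor-drug dose plus five library-drug doses (not always all listed) in √10 steps, and nuclei were counted after 5 days.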

[2] = compound: CN1CCN(CC1)C2=CC(=C(C=C2)NC3=NC(=C(S3)C(=O)C4=C(C=CC=C4Cl)Cl)N)OC [XMD14-99] + CS(=O)(=O)N1CCN(Cc2cc3nc(-c4cccc5[nH]ncc45)nc(N4CCOCC4)c3s2)CC1 [Pictilisib] (partner 1 µM)
In short: as §1

[3] = compound: N[C@@H]1CCCN(c2c(/C=C3\SC(=O)NC3=O)cccc2-c2ccccc2)C1 [AZD1208] + Cc1cc(Nc2cc(N3CCN(C)CC3)nc(Sc3ccc(NC(=O)C4CC4)cc3)n2)n[nH]1 [Tozasertib] (partner 0.1 µM)
In short: as §1

[4] = compound: N[C@@H]1CCCN(c2c(/C=C3\SC(=O)NC3=O)cccc2-c2ccccc2)C1 [AZD1208] + O=C(c1cc(Cc2n[nH]c(=O)c3ccccc23)ccc1F)N1CCN(C(=O)C2CC2)CC1 [Olaparib] (partner 8 µM)
In short: as §1

| Cell Line | relative viability ([1]; first compound 0.08 µM) | relative viability ([1]; first compound 0.8 µM) | relative viability ([1]; first compound 2.53 µM) | relative viability ([1]; first compound 8 µM) | relative viability ([2]; first compound 0.08 µM) | relative viability ([2]; first compound 0.8 µM) | relative viability ([2]; first compound 2.53 µM) | relative viability ([2]; first compound 8 µM) | relative viability ([3]; first compound 0.08 µM) | relative viability ([3]; first compound 0.253 µM) | relative viability ([3]; first compound 0.8 µM) | relative viability ([3]; first compound 2.53 µM) | relative viability ([3]; first compound 8 µM) | relative viability ([4]; first compound 0.08 µM) | relative viability ([4]; first compound 0.253 µM) | relative viability ([4]; first compound 0.8 µM) | relative viability ([4]; first compound 2.53 µM) | relative viability ([4]; first compound 8 µM) |
| --- | --- | --- | --- | --- | --- | --- | --- | --- | --- | --- | --- | --- | --- | --- | --- | --- | --- | --- |
| LC-2-ad | 1 | 1.01 | 0.849 | 0.836 | 0.488 | 0.439 | 0.49 | 0.32 | 0.397 | 0.381 | 0.355 | 0.363 | 0.318 | 0.315 | 0.781 | 0.736 | 0.663 | 0.728 |
| COR-L 105 | 1.06 | 1.25 | 0.991 | 0.734 | 0.363 | 0.374 | 0.34 | 0.357 | 0.35 | 0.384 | 0.376 | – | 0.348 | 0.702 | 0.586 | 0.661 | 0.736 | 0.594 |
| NCI-H1355 | 0.994 | 0.913 | 0.808 | 0.706 | 0.483 | 0.439 | 0.378 | 0.327 | 0.539 | 0.474 | 0.407 | 0.389 | 0.308 | 0.717 | 0.689 | 0.672 | 0.68 | 0.657 |
| H3255 | 0.956 | 0.9 | 0.737 | 0.709 | 0.451 | 0.39 | 0.403 | 0.302 | 0.664 | 0.675 | 0.534 | 0.58 | 0.689 | 0.593 | 0.611 | 0.557 | 0.597 | 0.569 |
| NCI-H2009 | 1.21 | 1.25 | 1.14 | 1.12 | 0.752 | 0.948 | 0.85 | 0.556 | 0.696 | 0.785 | 0.667 | 0.684 | 0.597 | 0.701 | 0.81 | 0.698 | 0.673 | 0.647 |
| NCI-H1734 | 0.821 | 0.826 | 0.793 | 0.7 | 0.436 | 0.447 | 0.513 | 0.389 | 0.272 | 0.26 | 0.247 | 0.219 | 0.227 | 0.679 | 0.575 | 0.554 | 0.544 | 0.449 |
| HOP-62 | 1.01 | 1.05 | 1.02 | 1.01 | 0.917 | 0.842 | 0.808 | 0.646 | 0.372 | 0.302 | 0.372 | 0.287 | 0.263 | 0.39 | 0.417 | 0.326 | 0.341 | 0.37 |
| LOU-NH91 | 0.919 | 0.962 | 0.916 | 0.802 | 0.586 | 0.614 | 0.516 | 0.545 | 0.711 | 0.558 | 0.62 | 0.556 | 0.516 | 0.905 | 0.943 | 0.876 | 0.907 | 0.883 |
| ChaGo-K-1 | 0.82 | 0.939 | 0.88 | 0.913 | 0.811 | 0.703 | 0.67 | 0.509 | 0.216 | 0.202 | 0.193 | 0.218 | 0.183 | 0.426 | 0.431 | 0.378 | 0.437 | 0.434 |
| NCI-H23 | 0.908 | 0.981 | 0.843 | 0.821 | 0.46 | 0.547 | 0.526 | 0.383 | 0.4 | 0.365 | 0.336 | 0.376 | 0.272 | 0.321 | 0.324 | 0.292 | 0.298 | 0.279 |
| PC-3 [JPC-3] | 1.06 | 0.957 | 0.858 | 0.762 | 0.793 | 0.73 | 0.717 | 0.586 | 0.9 | 0.989 | 0.906 | 0.886 | 0.78 | 1.17 | 1.31 | 1.1 | 1.2 | 1.19 |
| NCI-H1437 | 1.25 | 1.05 | 1.06 | 0.891 | 0.392 | 0.416 | 0.34 | 0.214 | 0.429 | 0.378 | 0.335 | 0.353 | 0.351 | 0.651 | 0.648 | 0.606 | 0.673 | 0.676 |
| NCI-H520 | 0.711 | 0.712 | 0.662 | 0.501 | 0.254 | 0.266 | 0.277 | 0.266 | 0.432 | 0.37 | 0.422 | 0.355 | 0.331 | 0.357 | 0.278 | 0.271 | 0.287 | 0.252 |
| NCI-H1666 | 1.02 | 0.859 | 0.866 | 0.712 | 0.449 | 0.448 | 0.403 | 0.343 | 0.535 | 0.6 | 0.513 | 0.644 | 0.58 | 0.762 | 0.766 | 0.673 | 0.693 | 0.768 |
| NCI-H1651 | 0.811 | 0.706 | 0.866 | 0.694 | 0.547 | 0.521 | 0.593 | 0.461 | 0.698 | 0.661 | 0.652 | 0.529 | 0.408 | 0.198 | 0.186 | – | 0.172 | 0.172 |
| NCI-H1755 | 0.916 | 0.9 | 0.817 | 0.687 | 0.404 | 0.401 | 0.426 | 0.295 | 0.525 | 0.532 | 0.52 | 0.417 | 0.358 | 0.835 | 0.83 | 0.841 | 0.849 | 0.66 |
| NCI-H727 | 0.95 | 0.893 | 0.684 | 0.555 | 0.551 | 0.403 | 0.321 | 0.276 | 0.673 | 0.636 | 0.568 | 0.566 | 0.585 | 0.793 | 0.556 | 0.917 | 0.743 | 0.734 |
| HARA | 0.791 | 0.793 | 0.748 | 0.757 | 0.35 | 0.382 | 0.222 | 0.298 | 0.11 | 0.0998 | 0.111 | 0.0918 | 0.0796 | 0.825 | 0.471 | 0.646 | 0.743 | 0.895 |
| NCI-H647 | 1.3 | 1.15 | 1.22 | 1.01 | 0.421 | 0.412 | 0.472 | 0.379 | 0.239 | 0.345 | 0.175 | 0.295 | 0.163 | 0.504 | 0.587 | 0.383 | 0.531 | 0.285 |
| NCI-H2347 | 0.913 | 0.92 | 1 | 0.369 | 0.519 | 0.871 | 0.477 | 0.431 | 0.364 | 0.523 | 0.524 | 0.687 | 0.502 | 0.614 | 0.628 | 0.518 | 0.541 | 0.538 |
| LCLC-97TM1 | 0.918 | 0.855 | 0.918 | 0.641 | 0.165 | 0.217 | 0.17 | 0.172 | 0.223 | 0.23 | 0.175 | 0.135 | 0.132 | 0.327 | 0.396 | 0.385 | 0.316 | 0.252 |
| EPLC-272H | 0.748 | 0.764 | 0.684 | 0.444 | 0.338 | 0.338 | 0.284 | 0.247 | 0.231 | 0.351 | 0.263 | 0.149 | 0.197 | 0.647 | 0.773 | 0.906 | 0.687 | 0.656 |
| NCI-H1915 | 1.06 | 1.02 | 0.961 | 0.859 | 0.927 | 0.934 | 0.902 | 0.595 | 0.427 | 0.378 | 0.367 | 0.249 | 0.244 | 0.251 | 0.236 | 0.261 | 0.218 | 0.238 |
| NCI-H3122 | 0.948 | 0.964 | 0.847 | 0.756 | 0.563 | 0.474 | 0.446 | 0.326 | 0.402 | 0.315 | 0.353 | 0.348 | 0.369 | 0.691 | 0.677 | 0.615 | 0.608 | 0.691 |
| NCI-H441 | 0.766 | 0.993 | 0.849 | 0.751 | 0.451 | 0.442 | 0.51 | 0.283 | 0.641 | 0.555 | 0.57 | 0.508 | 0.375 | 0.578 | 0.529 | 0.545 | 0.502 | 0.366 |
| NCI-H2170 | 0.978 | 1.02 | 1.02 | 0.921 | 0.311 | 0.355 | 0.273 | 0.28 | 0.718 | 0.707 | 0.614 | 0.447 | 0.306 | 0.683 | 0.697 | 0.55 | 0.552 | 0.385 |
| NCI-H1395 | 0.986 | 0.965 | 0.998 | 0.901 | 0.626 | 0.67 | 0.585 | 0.535 | 0.803 | 0.68 | 0.677 | 0.629 | 0.571 | 0.479 | 0.432 | 0.406 | 0.421 | 0.381 |
| NCI-H358 | 0.759 | 0.745 | 0.574 | 0.392 | 0.327 | 0.301 | 0.229 | 0.176 | 0.109 | 0.0897 | 0.104 | 0.101 | 0.091 | 0.636 | 0.515 | 0.501 | 0.544 | 0.525 |
| PC-14 | 0.964 | 0.969 | 0.864 | 0.852 | 0.621 | 0.611 | 0.573 | 0.312 | 0.554 | 0.55 | 0.467 | 0.503 | 0.463 | 0.381 | 0.248 | 0.27 | 0.365 | 0.257 |
| CAL-12T | 1.09 | 1.06 | 0.876 | 1.02 | 0.397 | 0.453 | 0.334 | 0.287 | 0.35 | 0.355 | 0.322 | 0.323 | 0.271 | 0.81 | 0.737 | 0.633 | 0.711 | 0.797 |
